Where a chain is given by its changes, count along the chain named.

The first assay deals with T1, AR protein (Homo sapiens, UniProt P10275, T878A).
T1 construct: degradation activity of the compounds disclosed in the present disclosure on AR protein in LNCaP cells; host or cells: LNCaP FGC
T1 sequence (P10275 1-920 T878A): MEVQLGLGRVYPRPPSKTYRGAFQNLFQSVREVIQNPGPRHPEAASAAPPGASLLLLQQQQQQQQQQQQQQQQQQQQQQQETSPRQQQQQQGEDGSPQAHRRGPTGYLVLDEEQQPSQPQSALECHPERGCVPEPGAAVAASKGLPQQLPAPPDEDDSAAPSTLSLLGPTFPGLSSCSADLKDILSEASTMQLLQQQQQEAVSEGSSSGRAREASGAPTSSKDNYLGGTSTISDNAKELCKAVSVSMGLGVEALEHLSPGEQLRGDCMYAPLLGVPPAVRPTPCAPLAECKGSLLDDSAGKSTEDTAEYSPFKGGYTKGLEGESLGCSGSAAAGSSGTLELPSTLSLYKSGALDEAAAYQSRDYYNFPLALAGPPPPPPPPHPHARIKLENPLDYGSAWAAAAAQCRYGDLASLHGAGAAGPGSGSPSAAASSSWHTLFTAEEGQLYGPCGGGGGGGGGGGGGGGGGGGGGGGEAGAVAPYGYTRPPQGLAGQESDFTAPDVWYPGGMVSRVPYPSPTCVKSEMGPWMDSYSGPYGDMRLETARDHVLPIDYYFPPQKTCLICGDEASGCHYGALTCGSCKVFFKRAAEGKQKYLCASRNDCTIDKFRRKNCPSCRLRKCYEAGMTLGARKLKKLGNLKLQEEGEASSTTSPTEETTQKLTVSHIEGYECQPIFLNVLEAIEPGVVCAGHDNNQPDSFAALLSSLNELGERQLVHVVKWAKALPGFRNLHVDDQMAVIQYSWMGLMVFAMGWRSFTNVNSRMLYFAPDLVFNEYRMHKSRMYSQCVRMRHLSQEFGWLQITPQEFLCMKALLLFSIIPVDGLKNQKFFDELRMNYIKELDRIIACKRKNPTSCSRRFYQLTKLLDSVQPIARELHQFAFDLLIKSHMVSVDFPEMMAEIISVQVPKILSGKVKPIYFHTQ
Description: Degradation of AR protein in LNCaP cells (Western blot). Format: cell-based. Particulars: LNCaP cells, compound 10 nM, 8 hours, Western blot grayscale, GAPDH internal reference; read-out: Degradation rates of the AR protein in LNCaP cells, 10 nM (%). How it is done: The degradation activity of the compounds disclosed in the present disclosure on AR protein in LNCaP cells (cell source: ATCC)
(§1) Corresponding solvent controls were also set and cultured for 8 hours. After 8 hours of cultivation, the culture medium was removed and the cells were washed with PBS. RIPA lysis buffer containing 1% Protease Inhibitor Cocktail was added, and the total protein extract was obtained by lysis and centrifugation. The protein concentration in the extract was detected by BCA method. Protein electrophoresis was performed using SDS-PAGE, followed by transfer of the protein onto a PVDF (Millipore Sigma catalog No. PSRP010R5) membrane at 100V constant voltage for 60 minutes. The PVDF membrane was then placed in a 1×TBST solution with 5% milk and blocked at room temperature for 1 hour. […] The primary antibody solution was discarded and the PVDF membrane was washed three times with 1×TBST for 5 minutes/time. […] The secondary antibody solution was discarded and the PVDF membrane was washed three times with 1×TBST for 5 minutes/time. Western blot imaging was performed by using a dual color infrared laser imaging system (Licor catalog No. Odyssey CLX). Bands were analyzed in grayscale using Image Studio software. For each sample, GAPDH protein bands were detected as internal reference. The degradation rates of the AR protein for the compounds and the positive control sample were calculated based on grayscale of the protein bands.
(In western blotting, separated proteins are transferred to a membrane and probed.)
With `COc1cc(O[C@H]2C(C)(C)[C@H](NC(=O)c3ccc(N4CCC(CN5CCC6(CCc7ccc8c(c7O6)CN(C6CCC(=O)NC6=O)C8=O)CC5)CC4)cc3)C2(C)C)ccc1C#N` (some centres unmarked) [Compound 298], the inhibition at 0.01 µM came to 27%.

The same assay, now with this note: LNCaP cells, compound 100 nM, 8 hours, Western blot grayscale, GAPDH internal reference; read-out: Degradation rates of the AR protein in LNCaP cells, 100 nM (%).
On to `COc1cc(O[C@H]2C(C)(C)[C@H](NC(=O)c3ccc(N4CCC(CN5CCC6(CCc7ccc8c(c7O6)CN(C6CCC(=O)NC6=O)C8=O)CC5)CC4)cc3)C2(C)C)ccc1C#N` (some centres unmarked) [Compound 298], for which the inhibition at 0.1 µM was 55%.

Staying with this assay, now noted: LNCaP, 8 h, read-out: Degradation rates of the AR protein in LNCaP cells, 10 nM (%).
Take `N#Cc1ccc(O[C@H]2CC[C@H](NC(=O)c3ccc(N4CCC(N5CCC6(CC5)COc5c(ccc7c5C(=O)N(C5CCC(=O)NC5=O)C7)C6)CC4)nn3)CC2)cc1Cl` (some centres unmarked) [Compound 189]: the inhibition at 0.01 µM was 42%.

Staying with this assay, now noted: LNCaP, 8 h, read-out: Degradation rates of the AR protein in LNCaP cells, 100 nM (%).
For `N#Cc1ccc(O[C@H]2CC[C@H](NC(=O)c3ccc(N4CCC(N5CCC6(CC5)COc5c(ccc7c5C(=O)N(C5CCC(=O)NC5=O)C7)C6)CC4)nn3)CC2)cc1Cl` (some centres unmarked) [Compound 189], the inhibition at 0.1 µM came out at 57%.

A further assay has as its target T2, AR protein (Homo sapiens, UniProt P10275).
T2 construct: degradation activity of the compounds disclosed in the present disclosure on AR protein in VCaP cells; host or cells: VCaP
T2 sequence (P10275 1-920): T1 sequence (P10275 1-920 T878A) with A878T
In words: Degradation of AR protein in VCaP cells (Western blot). Format: cell-based. The note with it: compound at 10 nM, 8 hours, read-out: Degradation rate of the AR protein in VCaP cells, 10 nM (%). How it is done:
The degradation activity of the compounds disclosed in the present disclosure on AR protein in VCaP cells (cell source: ATCC)
as §1
For the compound `N#Cc1ccc(O[C@H]2CC[C@H](NC(=O)c3ccc(N4CCC(F)(CN5CCC6(CC5)COc5c6ccc6c5CN(C5CCC(=O)NC5=O)C6=O)CC4)nc3)CC2)cc1Cl` (some centres unmarked) [Compound 216], the inhibition at 0.01 µM was determined as 54%.

The same assay, now with this note: compound at 100 nM, 8 hours, read-out: Degradation rate of the AR protein in VCaP cells, 100 nM (%).
On to `N#Cc1ccc(O[C@H]2CC[C@H](NC(=O)c3ccc(N4CCC(F)(CN5CCC6(CC5)COc5c6ccc6c5CN(C5CCC(=O)NC5=O)C6=O)CC4)nc3)CC2)cc1Cl` (some centres unmarked) [Compound 216], for which the inhibition at 0.1 µM was determined as 80%.

The next assay deals with LNCaP FGC cells. Description: Inhibition of proliferation of LNCaP cells (WST-8). Format: cell-based. The note with it: Homo sapiens, LNCaP, 96 h, LNCaP FGC cells, 96 hours, WST-8 absorbance at 450 nm; read-out: IC50 for inhibiting the proliferation of LNCaP cells. How it is done: The cells were cultured in a cell culture incubator with 5% CO2 at 37° C. overnight. […] On the sixth day, 96 well plates were taken out, and 20 μL of WST-8 (Beytime, C0040) reagent was added to each well.
Consider `CC1(C)C(=O)N(c2ccc(C#N)c(C(F)(F)F)c2)C(=S)N1c1ccc(C(=O)N2CCC3(CCC(N4CCC5(CCc6cc7c(cc6O5)C(=O)N(C5CCC(=O)NC5=O)C7=O)CC4)CC3)C2)c(F)c1` (centres unmarked) [Compound 129], for which the IC50 was determined as 3.63 µM.

Turning to `CC1(CN2CCC3(CCc4ccc5c(c4O3)CN(C3CCC(=O)NC3=O)C5=O)CC2)CCN(c2ccc(C(=O)N[C@H]3CC[C@H](Oc4ccc(C#N)c(Cl)c4)CC3)nn2)CC1` (some centres unmarked) [Compound 151], the IC50 worked out at 72.7 µM.

As for `CC1(CN2CCC3(CC2)COc2c(ccc4c2C(=O)N(C2CCC(=O)NC2=O)C4)C3)CCN(c2ccc(C(=O)NC3CCC(Oc4ccc(C#N)c(Cl)c4)CC3)nn2)CC1` (centres unmarked) [Compound 187], the IC50 was determined as 0.39 µM.

In the case of `N#Cc1ccc(O[C@H]2CC[C@H](NC(=O)c3ccc(N4CCC(F)(CN5CCC6(CC5)COc5c6ccc6c5CN(C5CCC(=O)NC5=O)C6=O)CC4)nc3)CC2)cc1Cl` (some centres unmarked) [Compound 216], the IC50 amounted to 0.006 µM.

Take `COc1cc(O[C@H]2C(C)(C)[C@H](NC(=O)c3ccc(N4CCC(CN5CCC6(CCc7ccc8c(c7O6)CN(C6CCC(=O)NC6=O)C8=O)CC5)CC4)cc3)C2(C)C)ccc1C#N` (some centres unmarked) [Compound 298]: the IC50 turned out to be 12.1 µM.

Still in this assay, the particulars now being: Homo sapiens, LNCaP, 96 h, read-out: IC50 for inhibiting the proliferation of LNCaP cells, LNCaP FGC cells, 96 hours, WST-8 absorbance at 450 nm.
Turning to `N#Cc1ccc(O[C@H]2CC[C@H](NC(=O)c3ccc(N4CCC(N5CCC6(CC5)COc5c(ccc7c5C(=O)N(C5CCC(=O)NC5=O)C7)C6)CC4)nn3)CC2)cc1Cl` (some centres unmarked) [Compound 189], the IC50 stood at 26.9 µM.

The same assay, now with this note: LNCaP FGC cells, 96 hours, WST-8 absorbance at 450 nm; read-out: IC50 for inhibiting the proliferation of LNCaP cells.
On to `N#Cc1ccc(O[C@H]2CC[C@H](NC(=O)c3ccc(N4CCC(F)(CN5CCC6(CCc7ccc8c(c7O6)CN(C6CCC(=O)NC6=O)C8=O)CC5)CC4)nn3)CC2)cc1Cl` (some centres unmarked) [Compound 132], for which the IC50 came out at 4.35 µM.

Turning to `COC1(CN2CCC3(CCc4ccc5c(c4O3)CN(C3CCC(=O)NC3=O)C5=O)CC2)CCN(c2ccc(C(=O)N[C@H]3CC[C@H](Oc4ccc(C#N)c(Cl)c4)CC3)nn2)CC1` (some centres unmarked) [Compound 133], the IC50 came out at 23.7 µM.

The values are drawn from patent US20260234157A1, “COMPOUND AND METHOD FOR TARGETED DEGRADATION OF ANDROGEN RECEPTOR” (Gan & Lee Pharmaceuticals Co., Ltd., priority 2023, published 2026).
